According to the supplement of paper PMC10307832:

Legend:
Experiment in all cases: relative viability (nuclei count vs DMSO), 5 days (fraction); higher = more cells survive
[1] = compound: C1CNCCC1C2=CC(=NN2)C3=CC=NC=C3
Procedure, shortened: (§1)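 Five library-drug doses, separated by factors of √10, were pinned into 1536-well plates holding lung cancer cell lines after an overnight stay at 37 °C. Cells were fixed, permeabilised and Hoechst-stained in one step after 5 days without medium change, then imaged at 4×. Viability compares treated-well with vehicle-well nuclei, counted in MetaXpress, as a median across plates. Passing plates had control CV below 25% and at least one doubling.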

[2] = compound: C[C@@H](N)c1ccc(C(=O)Nc2ccnc3[nH]ccc23)cc1
Procedure, shortened: as §1

Tanzisertib = compound: O[C@H]1CC[C@H](Nc2ncc3nc(Nc4c(F)cc(F)cc4F)n([C@H]4CCOC4)c3n2)CC1 [Tanzisertib]
Procedure, shortened: as §1

[3] = compound: C[C@@H](N)c1ccc(C(=O)Nc2ccnc3[nH]ccc23)cc1 + C[C@@H](Oc1cc(-c2cnn(C3CCNCC3)c2)cnc1N)c1c(Cl)ccc(F)c1Cl [Crizotinib] (partner 1 µM)
Procedure, shortened: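 Lung cancer cell lines, seeded in 1536-well plates, were treated the following day by pin tool with a single drug or with five library-drug doses (not always all listed) in √10 steps on top of a fixed anchor-drug dose. Cells were fixed and nuclei stained in one step after 5 days, and nuclei were counted. Relative viability is the nuclei count for treated wells divided by that for vehicle wells, reported as medians of duplicate plates.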

Row | Cell Line | relative viability ([1]; 0.08 µM) | relative viability ([1]; 0.8 µM) | relative viability ([1]; 2.53 µM) | relative viability ([1]; 8 µM) | relative viability ([2]; 0.04 µM) | relative viability ([2]; 0.1265 µM) | relative viability ([2]; 0.4 µM) | relative viability ([2]; 1.265 µM) | relative viability ([2]; 4 µM) | relative viability (Tanzisertib; 0.08 µM) | relative viability (Tanzisertib; 0.253 µM) | relative viability (Tanzisertib; 0.8 µM) | relative viability (Tanzisertib; 2.53 µM) | relative viability (Tanzisertib; 8 µM) | relative viability ([3]; first compound 0.04 µM) | relative viability ([3]; first compound 0.1265 µM) | relative viability ([3]; first compound 0.4 µM) | relative viability ([3]; first compound 1.265 µM) | relative viability ([3]; first compound 4 µM)
1 | HCC-78 | 1.04 | 0.706 | 1 | 1.03 | 1.23 | 0.933 | 1.23 | 0.72 | 0.92 | 1.06 | 1.02 | 0.986 | 0.97 | 0.682 | 0.383 | 0.347 | 0.363 | 0.453 | 0.32
2 | HCC-366 | 0.969 | 0.995 | 1.01 | 0.999 | 1.01 | 1.04 | 1.09 | – | 1.03 | 0.981 | 1.03 | 1.01 | 0.993 | 0.487 | 0.71 | 0.536 | 0.683 | – | 0.483
3 | HCC-827 | 1.05 | 1.04 | 1.06 | 1.01 | 0.901 | 1.13 | 1.05 | 1.05 | 0.938 | 1.07 | 1.05 | 1.03 | 1.02 | 0.663 | 0.928 | 0.957 | 0.925 | 0.941 | 0.795
4 | HOP-62 | 1.09 | 1.11 | 1.05 | 1.02 | 0.957 | 0.949 | 1.03 | 0.884 | 0.899 | 1.1 | 1.03 | 1 | 1.12 | 1.03 | 0.685 | 0.798 | 0.908 | 0.853 | 0.709
5 | IA-LM | 1 | 1.01 | 0.996 | 1.02 | 1.13 | 1.1 | 1.4 | 1.16 | 1.12 | 1.08 | 0.989 | 0.989 | 0.96 | 0.94 | 1.02 | 0.937 | 1.17 | 1.08 | 0.938
6 | LC-2-ad | 0.978 | 1.09 | 1 | 0.964 | 0.916 | 0.916 | 1.02 | 0.719 | 0.838 | 1.1 | 1.03 | 1.09 | 1.03 | 0.506 | 0.43 | 0.486 | 0.501 | 0.438 | 0.409
7 | LCLC-97TM1 | 1.05 | 0.884 | 1.33 | 0.947 | 1.18 | 0.868 | 1.16 | 0.843 | 0.983 | 1.03 | 0.997 | 1.03 | 0.941 | 0.59 | 0.32 | 0.322 | 0.463 | 0.961 | 0.638
8 | LCLC-103H | 1.06 | 0.873 | 0.919 | 0.98 | 1.01 | 0.964 | 0.971 | 0.917 | 0.81 | 1.1 | 1.05 | 1.12 | 1 | 1.04 | 1.19 | 1.02 | 1.13 | 1.01 | 0.903
9 | LK-2 | 0.729 | 1.02 | 1.07 | 1.05 | 1.32 | 0.863 | 1.04 | 0.929 | 1.21 | 1.16 | 1.06 | 1 | 1.03 | 1.03 | 0.227 | 0.251 | 0.224 | – | 0.218
10 | LOU-NH91 | 1.1 | 1.02 | 1.05 | 0.945 | 0.811 | 0.972 | 0.861 | 0.607 | 0.755 | 0.995 | 0.988 | 0.909 | 0.995 | 0.657 | 0.691 | 0.727 | 0.691 | 0.668 | 0.635
11 | LU99A | 0.948 | 1.01 | 1.04 | 0.946 | – | 0.989 | 0.96 | 0.924 | 0.692 | 1.1 | 1.03 | 1.03 | 1.11 | 0.938 | 0.55 | 0.558 | 0.58 | 0.462 | 0.47
12 | LXF-289 | 1.04 | 1.05 | 0.991 | 1 | 1.03 | 1 | 1.03 | 1.05 | 0.902 | 1.08 | 0.986 | 1.07 | 1.05 | 1.16 | 0.846 | 0.784 | 0.883 | 0.915 | 0.715
13 | NCI-H522 | 0.819 | 1.05 | 0.983 | 0.98 | 0.935 | 0.865 | 1.11 | 0.875 | 0.805 | 1.11 | 1.01 | 1.02 | 0.956 | 0.702 | – | – | – | – | –
14 | NCI-H1395 | 0.861 | 0.733 | 1.07 | 0.882 | 0.889 | 0.924 | 0.949 | – | 0.828 | 0.986 | 1 | 0.96 | 1.03 | 0.715 | – | – | – | – | –
15 | NCI-H1623 | 0.991 | 0.921 | 1.14 | 1.03 | 1.16 | 0.976 | 1.11 | 1.06 | 1.15 | 1.08 | 1.21 | 1.01 | 0.964 | 0.952 | – | – | – | – | –
16 | NCI-H1648 | 0.979 | 0.826 | 0.754 | 0.97 | 1.44 | 1.21 | 1.59 | 1.82 | 1.37 | 0.97 | 1.14 | 0.926 | 0.97 | 0.667 | – | – | – | – | –
17 | NCI-H1793 | 0.835 | 0.702 | 0.923 | 0.878 | 0.973 | 0.952 | 1.08 | – | 1.11 | 1.07 | 0.857 | 0.998 | 0.758 | 0.522 | – | – | – | – | –
18 | NCI-H2342 | 0.919 | 0.965 | 1.03 | 1.16 | 1.03 | 1.06 | 1.04 | 1.21 | 0.927 | 1.09 | 1.09 | 0.945 | 0.845 | 0.959 | – | – | – | – | –
19 | SW 900 | 0.843 | 0.67 | 0.88 | 0.995 | 0.92 | 0.965 | 0.887 | 1.24 | 0.986 | 0.811 | 0.87 | 0.936 | 1.18 | 0.691 | – | – | – | – | –
